Reference: PubChem BioAssay AID1845202 (Molecular Pharmacology Branch, DTP, NCI, 2023)
Values joined by “and” are separate entries in the source; they are usually repeats but may differ in a detail not shown here. Identical values can stand only once.

Tested on: DMS 114 tumor spheroids, viability % test/control
Assay: Anticancer human tumor DMS 114 cell line growth inhibition;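 further: spheroids exposed to compounds for 7 days before read-out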;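 on viability, T/C: luminescence used as a proxy for viable cells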
Conditions: spheroids with HUVEC and MSC; for viability, T/C: stronger effect = lower value
How it was run: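 Complex spheroids of malignant cells with endothelial cells and mesenchymal stem cells; agents alone or combined, from near clinical Cmax (or 10 microM if unknown) down in half-log steps, 0.25% DMSO final.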

Molecule Cn1ncnc1[C@H]1c2n[nH]c(=O)c3cc(F)cc(c23)N[C@@H]1c1ccc(F)cc1 + Cn1nnc2c(C(N)=O)ncn2c1=O has an IC50 (curve of first compound, second compound 1 µM) of 696 nM, an IC50 (curve of first compound, second compound 3.16 µM) of 646 nM and an IC50 (curve of first compound, second compound 10 µM) of 208 nM. The IC50 (curve of first compound, second compound 31.6 µM) was under 9.49 nM, the IC50 (curve of first compound, second compound 100 µM) was under 9.49 nM and the viability, T/C (second compound 1 µM, first compound 0.00949 µM) was 106%. For the same molecule, the viability, T/C (second compound 1 µM, first compound 0.03 µM) was 107%, the viability, T/C (second compound 1 µM, first compound 0.0949 µM) was 98.8% and the viability, T/C (second compound 1 µM, first compound 0.3 µM) was 82.6%. The viability, T/C (second compound 1 µM, first compound 0.949 µM) was 37.9%, the viability, T/C (second compound 1 µM, first compound 3 µM) was 11.6% and the viability, T/C (second compound 3.16 µM, first compound 0.00949 µM) was 112%. The viability, T/C (second compound 3.16 µM, first compound 0.03 µM) was 107%, the viability, T/C (second compound 3.16 µM, first compound 0.0949 µM) was 97.2% and the viability, T/C (second compound 3.16 µM, first compound 0.3 µM) was 77.2%. For the same molecule, the viability, T/C (second compound 3.16 µM, first compound 0.949 µM) was 36%, the viability, T/C (second compound 3.16 µM, first compound 3 µM) was 14% and the viability, T/C (second compound 10 µM, first compound 0.00949 µM) was 111%. For the same molecule, the viability, T/C (second compound 10 µM, first compound 0.03 µM) was 82.7%, the viability, T/C (second compound 10 µM, first compound 0.0949 µM) was 65.8% and the viability, T/C (second compound 10 µM, first compound 0.3 µM) was 43.4%. For the same molecule, the viability, T/C (second compound 10 µM, first compound 0.949 µM) was 27.1%, the viability, T/C (second compound 10 µM, first compound 3 µM) was 16.2% and the viability, T/C (second compound 31.6 µM, first compound 0.00949 µM) was 51.5%. For the same molecule, the viability, T/C (second compound 31.6 µM, first compound 0.03 µM) was 39.3%, the viability, T/C (second compound 31.6 µM, first compound 0.0949 µM) was 32.4% and the viability, T/C (second compound 31.6 µM, first compound 0.3 µM) was 27.6%. It also gave a viability, T/C (second compound 31.6 µM, first compound 0.949 µM) of 20.7%, a viability, T/C (second compound 31.6 µM, first compound 3 µM) of 10.8% and a viability, T/C (second compound 100 µM, first compound 0.00949 µM) of 24.1%. For the same molecule, the viability, T/C (second compound 100 µM, first compound 0.03 µM) was 23.1%, the viability, T/C (second compound 100 µM, first compound 0.0949 µM) was 22.3% and the viability, T/C (second compound 100 µM, first compound 0.3 µM) was 19.4%. The viability, T/C (second compound 100 µM, first compound 0.949 µM) was 14.9% and the viability, T/C (second compound 100 µM, first compound 3 µM) was 9.45%.

For CNCc1ccc(-c2cc(-c3nc(-c4ccc(S(=O)(=O)C(C)C)cc4)cnc3N)on2)cc1 + CC[C@@]1(O)C(=O)OCc2c1cc1n(c2=O)Cc2cc3c(CN(C)C)c(O)ccc3nc2-1, the IC50 (curve of first compound, second compound 0.003 µM) was 60 nM, the IC50 (curve of first compound, second compound 0.00949 µM) was 25 nM and the IC50 (curve of first compound, second compound 0.03 µM) was under 9.49 nM. The IC50 (curve of first compound, second compound 0.0949 µM) was under 9.49 nM, the IC50 (curve of first compound, second compound 0.3 µM) was under 9.49 nM and the viability, T/C (second compound 0.003 µM, first compound 0.00949 µM) was 98.5%. For the same molecule, the viability, T/C (second compound 0.003 µM, first compound 0.03 µM) was 68.3%, the viability, T/C (second compound 0.003 µM, first compound 0.0949 µM) was 37.7% and the viability, T/C (second compound 0.003 µM, first compound 0.3 µM) was 17.1%. The viability, T/C (second compound 0.003 µM, first compound 0.949 µM) was 2.3%, the viability, T/C (second compound 0.003 µM, first compound 3 µM) was 0.16% and the viability, T/C (second compound 0.00949 µM, first compound 0.00949 µM) was 80.3%. The viability, T/C (second compound 0.00949 µM, first compound 0.03 µM) was 43%, the viability, T/C (second compound 0.00949 µM, first compound 0.0949 µM) was 23.5% and the viability, T/C (second compound 0.00949 µM, first compound 0.3 µM) was 14.3%. For the same molecule, the viability, T/C (second compound 0.00949 µM, first compound 0.949 µM) was 3.11%, the viability, T/C (second compound 0.00949 µM, first compound 3 µM) was 0.14% and the viability, T/C (second compound 0.03 µM, first compound 0.00949 µM) was 31.3%. It also gave a viability, T/C (second compound 0.03 µM, first compound 0.03 µM) of 26.6%, a viability, T/C (second compound 0.03 µM, first compound 0.0949 µM) of 23.7% and a viability, T/C (second compound 0.03 µM, first compound 0.3 µM) of 11.9%. For the same molecule, the viability, T/C (second compound 0.03 µM, first compound 0.949 µM) was 1.54%, the viability, T/C (second compound 0.03 µM, first compound 3 µM) was 0.13% and the viability, T/C (second compound 0.0949 µM, first compound 0.00949 µM) was 16.2%. The viability, T/C (second compound 0.0949 µM, first compound 0.03 µM) was 17%, the viability, T/C (second compound 0.0949 µM, first compound 0.0949 µM) was 12.5% and the viability, T/C (second compound 0.0949 µM, first compound 0.3 µM) was 9.06%. For the same molecule, the viability, T/C (second compound 0.0949 µM, first compound 0.949 µM) was 1.27%, the viability, T/C (second compound 0.0949 µM, first compound 3 µM) was 0.12% and the viability, T/C (second compound 0.3 µM, first compound 0.00949 µM) was 8.52%. For the same molecule, the viability, T/C (second compound 0.3 µM, first compound 0.03 µM) was 8.82%, the viability, T/C (second compound 0.3 µM, first compound 0.0949 µM) was 9.74% and the viability, T/C (second compound 0.3 µM, first compound 0.3 µM) was 6.32%. For the same molecule, the viability, T/C (second compound 0.3 µM, first compound 0.949 µM) was 0.95% and the viability, T/C (second compound 0.3 µM, first compound 3 µM) was 0.2%.

With COc1ccc([C@@H](O)c2cc(-c3ncnc4cc(N5CCOCC5)ccc34)c(F)cc2Cl)nn1 the viability, T/C (compound 0.0316 µM) was 98.5% and 111% and 96.3%, the viability, T/C (compound 0.1 µM) was 100% and 104% and 105% and the viability, T/C (compound 0.316 µM) was 98% and 103% and 108%. For the same molecule, the viability, T/C (compound 1 µM) was 98.8% and 121% and 100%, the viability, T/C (compound 3.16 µM) was 81.9% and 95.8% and 92.8% and the viability, T/C (compound 10 µM) was 40.5% and 46.1% and 35.6%. For the same molecule, the IC50 (curve of compound) was 7800 nM and 9150 nM and 7490 nM.

Cn1ncnc1[C@H]1c2n[nH]c(=O)c3cc(F)cc(c23)N[C@@H]1c1ccc(F)cc1 was tested, and the viability, T/C (compound 0.00949 µM) was 117% and 110% and 92%, the viability, T/C (compound 0.03 µM) was 94.9% and 113% and 95.8% and the viability, T/C (compound 0.0949 µM) was 91.3% and 103% and 87.2%. For the same molecule, the viability, T/C (compound 0.3 µM) was 72.8% and 101% and 65.3%, the viability, T/C (compound 0.949 µM) was 34.5% and 47.5% and 32.3% and the viability, T/C (compound 3 µM) was 9.35% and 15.3% and 10.1%. For the same molecule, the IC50 (curve of compound) was 611 nM and 901 nM and 514 nM.
